15 compounds from PubChem BioAssay AID212 (DTP/NCI, 2004) can be followed below.

Structures are written as SMILES. “And” between values parts separate entries of the source, which are not always exact repeats. Equal entries are not always repeated. Inconclusive results are not listed.

In this assay the test system is BDF1 mice, colon carcinoma 38 sc, T/C %. Briefly: NCI In Vivo Anticancer Drug Screen. Data for tumor model Colon Carcinoma 38 (subcutaneous) in B6D2F1 (BDF1) mice. The conditions noted are these: endpoint: median tumor weight (est.), higher = larger tumour. Put shortly:
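Ratio of survival or tumor size, compound-treated animals relative to vehicle controls, in tumor-bearing mice.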

Setting [1] is: dose: 25.0 mg/kg/injection, schedule: Q07DX002 (ip), vehicle: saline.
The mark [2] stands for this setting: dose: 50.0 mg/kg/injection, schedule: Q07DX002 (ip), vehicle: saline.
The mark [3] stands for this setting: dose: 100.0 mg/kg/injection, schedule: Q07DX002 (ip), vehicle: saline.
Where [4] appears, read: dose: 200.0 mg/kg/injection, schedule: Q07DX002 (ip), vehicle: saline.
[5] abbreviates: dose: 12.5 mg/kg/injection, schedule: Q07DX002 (ip), vehicle: saline.
The mark [6] stands for this setting: dose: 25.0 mg/kg/injection, schedule: Q07DX002 (ip), vehicle: saline with Tween-80.
Where [7] appears, read: dose: 50.0 mg/kg/injection, schedule: Q07DX002 (ip), vehicle: saline with Tween-80.
The mark [8] stands for this setting: dose: 200.0 mg/kg/injection, schedule: Q07DX002 (ip), vehicle: saline with Tween-80.
Where [9] appears, read: dose: 12.5 mg/kg/injection, schedule: Q07DX002 (ip), vehicle: saline with Tween-80.
Setting [10] is: dose: 400.0 mg/kg/injection, schedule: Q07DX002 (ip), vehicle: saline with Tween-80.
The mark [11] stands for this setting: dose: 200.0 mg/kg/injection, schedule: Q07DX002 (ip), vehicle: Klucel (hydroxypropylcellulose) (HPC).

For the compound `CC1=CC2OC3C(OC(=O)c4ccccc4)C(OC(=O)c4ccccc4)C(C)(C2(COC(=O)c2ccccc2)CC1)C31CO1` (stereo unspecified), the T/C was 166 % of control (dose: 3.0 mg/kg/injection, schedule: Q07DX002 (ip), vehicle: saline with Tween-80); 152 % of control (dose: 6.0 mg/kg/injection, schedule: Q07DX003 (ip), vehicle: saline with Tween-80); 184 % of control (dose: 12.0 mg/kg/injection, schedule: Q07DX003 (ip), vehicle: saline with Tween-80).
As to `O=C(CCBr)N1CCN(C(=O)CCBr)CC1`, the T/C runs as follows: (dose: 10.0 mg/kg/injection, schedule: Q07DX002 (ip), vehicle: saline with Tween-80) 90 % of control; (dose: 10.0 mg/kg/injection, schedule: Q07DX002 (ip), vehicle: water) 172 % of control; (dose: 20.0 mg/kg/injection, schedule: Q07DX002 (ip), vehicle: saline with Tween-80) 111 % of control; (dose: 20.0 mg/kg/injection, schedule: Q07DX002 (ip), vehicle: water) 109 % of control; (dose: 40.0 mg/kg/injection, schedule: Q07DX002 (ip), vehicle: saline with Tween-80) 60 % of control; (dose: 40.0 mg/kg/injection, schedule: Q07DX002 (ip), vehicle: water) 157 % of control. The T/C is 69 % of control and 78 % of control (dose: 80.0 mg/kg/injection, schedule: Q07DX002 (ip), vehicle: saline with Tween-80); 120 % of control (dose: 80.0 mg/kg/injection, schedule: Q07DX002 (ip), vehicle: water); 91 % of control (dose: 160.0 mg/kg/injection, schedule: Q07DX002 (ip), vehicle: water); 67 % of control (dose: 320.0 mg/kg/injection, schedule: Q07DX002 (ip), vehicle: water).
Regarding `CC(Cc1ccc(O)c(O)c1)C(C)Cc1ccc(O)c(O)c1` (stereo unspecified), the T/C was 100 % of control under setting [1]; 83 % of control under setting [2]; 94 % of control under setting [3]; 90 % of control (dose: 800.0 mg/kg/injection, schedule: Q07DX002 (ip), vehicle: saline).
Take `CN(CCN(C)C(=O)CCOS(C)(=O)=O)C(=O)CCOS(C)(=O)=O`: the T/C was 75 % of control and 94 % of control under setting [2]; 48 % of control and 63 % of control under setting [3]; 25 % of control and 43 % of control under setting [4].
Consider `Nc1ccn([C@@H](C=O)O[C@@H](C=O)CO)c(=O)n1`, for which the T/C is 99 % of control under setting [5]; 71 % of control under setting [1]; 58 % of control under setting [2]; 86 % of control under setting [3]; 73 % of control under setting [4].
Regarding `CC[C@](O)(C(=O)O)c1cc2n(c(=O)c1CO)Cc1cc3ccccc3nc1-2`, the T/C runs as follows: (dose: 6.25 mg/kg/injection, schedule: Q07DX003 (ip), vehicle: saline) 48 % of control and 62 % of control; (dose: 12.5 mg/kg/injection, schedule: Q07DX003 (ip), vehicle: saline) 38 % of control and 60 % of control; (dose: 25.0 mg/kg/injection, schedule: Q07DX003 (ip), vehicle: saline) 34 % of control and 41 % of control and 54 % of control; (dose: 50.0 mg/kg/injection, schedule: Q07DX003 (ip), vehicle: saline) 23 % of control and 26 % of control and 45 % of control; (dose: 100.0 mg/kg/injection, schedule: Q07DX003 (ip), vehicle: saline) 9 % of control.
As for `CCCCCCCCCCCCSC1=C(Cl)C(=O)C(OC)=C(OC)C1=O`, the T/C reads like this: under setting [6], 110 % of control and 97 % of control; under setting [7], 91 % of control and 96 % of control; under setting [8], 104 % of control.
With `C1CNCOC1`, the T/C was 108 % of control under setting [1] and 115 % of control under setting [3].
`Cc1c(-c2ccc(-c3ccccc3F)cc2)nc2ccc(F)cc2c1C(=O)O`: the T/C by setting is: (dose: 5.0 mg/kg/injection, schedule: Q01DX008 (ip), vehicle: water) 24 % of control; (dose: 10.0 mg/kg/injection, schedule: Q01DX008 (ip), vehicle: water) 5 % of control; (dose: 20.0 mg/kg/injection, schedule: Q01DX008 (ip), vehicle: water) 16 % of control.
On to `C(COCCOCC1CO1)OCCOCC1CO1` (stereo unspecified), for which the T/C under setting [9] was 88 % of control; the T/C under setting [5] was 102 % of control; the T/C under setting [2] was 158 % of control; the T/C under setting [3] was 84 % of control; the T/C under setting [8] is 113 % of control; the T/C under setting [10] is 99 % of control. The T/C (dose: 400.0 mg/kg/injection, schedule: Q07DX002 (ip), vehicle: saline) was 68 % of control.
On to `CC[C@@]1(O)C(=O)OCc2c1cc1n(c2=O)Cc2cc3cc(O)ccc3nc2-1`, for which the T/C is 92 % of control (dose: 0.75 mg/kg/injection, schedule: Q07DX002 (ip), vehicle: saline); 92 % of control (dose: 1.5 mg/kg/injection, schedule: Q07DX002 (ip), vehicle: saline); 91 % of control (dose: 3.0 mg/kg/injection, schedule: Q07DX002 (ip), vehicle: saline); 67 % of control (dose: 6.0 mg/kg/injection, schedule: Q07DX002 (ip), vehicle: saline); 81 % of control (dose: 12.0 mg/kg/injection, schedule: Q07DX002 (ip), vehicle: saline).
As to `O=C1NC(=O)C2C3C=CC(C12)C1C2C(=O)NC(=O)C2C31` (stereo unspecified), the T/C under setting [10] was 29 % of control and 50 % of control.
For the compound `Nc1nc(=S)c2ncn(C3CC(O)C(CO)O3)c2[nH]1` (stereo unspecified), the T/C is 63 % of control (dose: 4.0 mg/kg/injection, schedule: Q07DX003 (ip), vehicle: saline with Tween-80); 32 % of control (dose: 5.0 mg/kg/injection, schedule: Q07DX003 (ip), vehicle: saline with Tween-80); 111 % of control (dose: 8.0 mg/kg/injection, schedule: Q07DX003 (ip), vehicle: saline with Tween-80); 22 % of control (dose: 10.0 mg/kg/injection, schedule: Q07DX003 (ip), vehicle: saline with Tween-80); 39 % of control (dose: 16.0 mg/kg/injection, schedule: Q07DX003 (ip), vehicle: saline with Tween-80); 25 % of control (dose: 20.0 mg/kg/injection, schedule: Q07DX003 (ip), vehicle: saline with Tween-80). Moreover, the T/C is 89 % of control (dose: 32.0 mg/kg/injection, schedule: Q07DX003 (ip), vehicle: saline with Tween-80); 14 % of control (dose: 40.0 mg/kg/injection, schedule: Q07DX003 (ip), vehicle: saline with Tween-80); 110 % of control (dose: 64.0 mg/kg/injection, schedule: Q07DX003 (ip), vehicle: saline with Tween-80); 4 % of control (dose: 80.0 mg/kg/injection, schedule: Q07DX003 (ip), vehicle: saline with Tween-80); 36 % of control (dose: 128.0 mg/kg/injection, schedule: Q07DX003 (ip), vehicle: saline with Tween-80).
With `C[C@@H]1C[C@H]2[C@@H]3CCC4=CC(=O)C=C[C@]4(C)[C@@]3(F)[C@@H](O)C[C@]2(C)[C@@]1(O)C(=O)CO`, the T/C by setting is: (dose: 6.25 mg/kg/injection, schedule: Q07DX002 (ip), vehicle: Klucel (hydroxypropylcellulose) (HPC)) 156 % of control; under setting [11], 53 % of control and 58 % of control; (dose: 400.0 mg/kg/injection, schedule: Q07DX002 (ip), vehicle: Klucel (hydroxypropylcellulose) (HPC)) 25 % of control.
Take `COC1C(O)C(C)OC(OC2C(Oc3cccc4c(O)c5c(=O)oc6ccc(C)c7c(=O)oc(c34)c5c67)OC(C)C(O)C2O)C1O` (stereo unspecified): the T/C was 118 % of control and 108 % of control (dose: 12.5 mg/kg/injection, schedule: Q07DX002 (ip), vehicle: Klucel (hydroxypropylcellulose) (HPC)); 111 % of control under setting [9]; 72 % of control and 92 % of control (dose: 12.5 mg/kg/injection, schedule: Q07DX003 (ip), vehicle: Klucel (hydroxypropylcellulose) (HPC)); 57 % of control (dose: 25.0 mg/kg/injection, schedule: Q07DX002 (ip), vehicle: Klucel (hydroxypropylcellulose) (HPC)); 83 % of control under setting [6]; 103 % of control (dose: 25.0 mg/kg/injection, schedule: Q07DX003 (ip), vehicle: Klucel (hydroxypropylcellulose) (HPC)). Also, the T/C under setting [7] was 84 % of control; the T/C (dose: 100.0 mg/kg/injection, schedule: Q07DX002 (ip), vehicle: saline with Tween-80) is 75 % of control; the T/C (dose: 100.0 mg/kg/injection, schedule: Q07DX003 (ip), vehicle: Klucel (hydroxypropylcellulose) (HPC)) was 88 % of control and 104 % of control; the T/C under setting [11] is 157 % of control; the T/C under setting [8] is 107 % of control.
